Series [1] concerns the target T1, aldehyde oxidase (AO) (Homo sapiens (Human), UniProt Q06278). Briefly: in vitro. On the procedure:
All calculations were carried out using Microsoft Excel. Peak areas were determined from extracted ion chromatograms. The slope value, k, was determined by linear regression of the natural logarithm of the remaining percentage of the parent drug vs. incubation time curve.

The target in a further series is ATM (Homo sapiens (Human), UniProt Q13315). The series is described as follows: biochemical. The conditions noted are these: read-out: ATM IC50. It is filed as biochemical. An excerpt: Assay a): ATM Biochemical Potency
Data was collected by Caliper.

A further series has as its target ATR (Homo sapiens (Human), UniProt Q13535). The series is described as follows: ATR biochemical potency assay (Assay b). The procedure:
Assay b): ATR Biochemical Potency
The plate was incubated at room temperature for 10 minutes. 2× peptide solutions were prepared with FAM-labeled peptide and ATP in the 1× kinase base buffer. […] 40 μl of stop buffer was added to stop reaction. Data were collected by Caliper.

Another series concerns the target DNA-PK (Homo sapiens (Human), UniProt P78527). Briefly: DNA-PK biochemical assay (Assay e). On the procedure:
Assay e): DNA-PK Biochemical Assay
The final concentration: Substrate 0.2 ug/ml and ATP 20 uM. […] The plate was equilibrated for 2 hr at room temperature.

The test system of series [2] is phosp-KAP1 in MCF-7 cells. The series is described as follows: phosp-KAP1 MCF-7 cellular potency assay (Assay f). It is filed as cell-based. The conditions noted are these: Homo sapiens, MCF7; MCF-7 cells, etoposide; read-out: Etoposide MCF-7 cellular IC50. The procedure: Assay f): phosp-KAP1 MCF-7 Cellular Potency
MCF-7 cells were seeded to a 384-well cell-culture plate, 25 μl/well which were incubated at 37° C. and 5% CO2 for 24 hr. Test compounds were added to the 384-well plates. Etoposide at final concentration of 100 μM was then added to each well except Vehicle control wells, which were incubated at 37° C. and 5% CO2 for 1 hour. After medium removal, cells were fixed by the addition of 25 μl/well of 8% paraformaldehyde in PBSA and incubated for 20 minutes at room temperature. After the plates were rinsed 3 times with PBSA, 50 ul permeabilization buffer (0.1% Triton X-100 in PBS) was added and the plates were incubated for 20 minutes at room temperature. After the plates were rinsed with PBSA, block the cells by adding 50 μl of Odyssey Blocking Buffer in 384-well plate and then incubate for 1.5 hours at room temperature. Remove blocking buffer by Plate washer (BioTek ELx405 select CW). […] The plates were rinsed 5 times with PBST (0.1% Tween-20 in PBS).
• 1) Fluorescence intensity (FI) was detected for each well. • 2) % inhibition is calculated as follow:
[formula] • FIpositive: The average FI for the positive controls across the plate. • FIvehicle: The average FI for negative controls across the plate. • 3) Calculate IC50 and Plot effect-dose curve of compounds: • Calculate IC50 by fitting % inhibition values and log of compound concentrations to nonlinear regression (dose response−variable slope) with Graphpad prism 6.0.
Y=Bottom+(Top−Bottom)/(1+10^((Log IC50−X)*HillSlope)) • X: log of compounds concentration; Y: % inhibition

The target of series [3] is ATM (phospho-ATM Ser1981) in SN38 treated HT-29 cells (Homo sapiens (Human), UniProt Q13315). Briefly: cell-based. The conditions noted are these: HT-29 cells, SN-38; read-out: SN-38 HT-29 cellular IC50. On the procedure:
Assay g): ATM SN-38 HT-29 Cellular Potency
SN38 causes single strand DNA breaks (SSBs) which are converted to double strand breaks (DSBs) during replication. ATM plays role of repairing DSBs. Inhibition of ATM was evaluated in SN38 treated HT-29 cells (ATCC, Cat #HTB-38) by high-Content Imaging System
The graphical views were then generated using Prism 7.0 (Graphpad).

The target of a further series is mTOR (Homo sapiens (Human), UniProt P42345). The series is described as follows: mTOR biochemical potency assay (Assay d).
The next series addresses PI3Kα (p110α/p85a) (Homo sapiens (Human), UniProt P42336). The series is described as follows: PI3K biochemical potency assay (Assay c), PI3Kα.
In a further series the target is PIK3Cδ (Homo sapiens (Human), UniProt O00329). Briefly: PI3K biochemical potency assay (Assay c), PIK3Cδ.
Another series deals with PIK3Cβ (p110β) (Homo sapiens (Human), UniProt P42338). The series is described as follows: PI3K biochemical potency assay (Assay c), PIK3Cβ.
The target of another series is PIK3Cγ (pp110γ) (Homo sapiens (Human), UniProt P48736). Briefly: PI3K biochemical potency assay (Assay c), PIK3Cγ.
Series [4] concerns the target T1, aldehyde oxidase (AO). The conditions noted are these: reference compounds of the human liver cytosolic system; cited from earlier work.
For series [5] the following is noted: cited from earlier work; for clearance in humans: Zientek et al. 2010.

For orientation: IC50 means the concentration that gives 50% inhibition. One may read the microsomal CLint as a measure of how fast metabolising enzymes remove a compound, apart from limits set by blood flow. Lower therefore signals slow turnover.

SMILES strings stand for the structures. Like-named read-outs stand apart in the source and are kept apart here. Bounds are passed on as bounds.

PIK3Cβ (p110β), sequence (P42338 whole entry, looked up): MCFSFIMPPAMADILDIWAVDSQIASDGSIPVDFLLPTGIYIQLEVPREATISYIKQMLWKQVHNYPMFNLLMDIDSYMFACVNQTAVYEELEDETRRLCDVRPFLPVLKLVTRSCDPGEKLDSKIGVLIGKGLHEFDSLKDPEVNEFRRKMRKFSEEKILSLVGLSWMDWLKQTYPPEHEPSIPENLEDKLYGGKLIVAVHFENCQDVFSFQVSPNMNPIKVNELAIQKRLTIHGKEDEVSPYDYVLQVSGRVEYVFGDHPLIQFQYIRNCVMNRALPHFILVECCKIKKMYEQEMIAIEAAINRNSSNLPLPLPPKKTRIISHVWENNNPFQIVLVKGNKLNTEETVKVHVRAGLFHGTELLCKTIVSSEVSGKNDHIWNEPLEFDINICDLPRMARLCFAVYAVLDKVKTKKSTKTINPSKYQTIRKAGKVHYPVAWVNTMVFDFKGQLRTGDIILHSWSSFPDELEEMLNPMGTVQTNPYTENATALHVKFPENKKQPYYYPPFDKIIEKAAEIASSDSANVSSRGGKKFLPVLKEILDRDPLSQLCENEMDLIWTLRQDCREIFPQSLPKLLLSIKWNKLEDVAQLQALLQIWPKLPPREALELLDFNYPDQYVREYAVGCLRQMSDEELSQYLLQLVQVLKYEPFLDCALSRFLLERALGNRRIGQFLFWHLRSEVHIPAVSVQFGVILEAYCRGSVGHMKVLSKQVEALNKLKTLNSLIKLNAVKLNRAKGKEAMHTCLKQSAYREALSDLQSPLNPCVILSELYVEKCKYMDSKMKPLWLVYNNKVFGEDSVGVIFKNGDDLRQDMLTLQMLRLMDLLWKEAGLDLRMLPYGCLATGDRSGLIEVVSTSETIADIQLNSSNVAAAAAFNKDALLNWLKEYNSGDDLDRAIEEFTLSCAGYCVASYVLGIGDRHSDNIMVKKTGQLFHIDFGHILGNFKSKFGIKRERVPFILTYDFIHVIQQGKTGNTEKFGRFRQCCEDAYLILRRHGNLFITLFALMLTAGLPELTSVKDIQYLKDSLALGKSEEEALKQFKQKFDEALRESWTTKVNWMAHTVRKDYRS
PIK3Cβ (p110β), sequence (P27986 whole entry partner, looked up): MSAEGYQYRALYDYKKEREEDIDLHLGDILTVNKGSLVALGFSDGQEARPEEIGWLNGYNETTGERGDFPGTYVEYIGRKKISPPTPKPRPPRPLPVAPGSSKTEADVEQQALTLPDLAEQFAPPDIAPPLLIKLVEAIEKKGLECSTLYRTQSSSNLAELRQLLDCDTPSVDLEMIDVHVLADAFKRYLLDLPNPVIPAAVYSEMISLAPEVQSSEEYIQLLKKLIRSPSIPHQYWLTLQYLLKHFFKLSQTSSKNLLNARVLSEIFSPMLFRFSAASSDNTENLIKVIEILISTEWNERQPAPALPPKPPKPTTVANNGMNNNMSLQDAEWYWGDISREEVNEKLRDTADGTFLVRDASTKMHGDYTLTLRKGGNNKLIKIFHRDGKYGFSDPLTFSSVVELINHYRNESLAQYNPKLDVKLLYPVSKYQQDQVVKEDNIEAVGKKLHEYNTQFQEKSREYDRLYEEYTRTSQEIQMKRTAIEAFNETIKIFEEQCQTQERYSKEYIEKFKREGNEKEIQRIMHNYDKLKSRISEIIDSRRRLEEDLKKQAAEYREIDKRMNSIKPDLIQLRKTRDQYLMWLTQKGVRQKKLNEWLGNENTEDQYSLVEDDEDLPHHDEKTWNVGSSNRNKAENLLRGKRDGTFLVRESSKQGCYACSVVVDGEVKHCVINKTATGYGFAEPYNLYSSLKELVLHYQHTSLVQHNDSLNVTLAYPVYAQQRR
PIK3Cδ, sequence (O00329 whole entry, looked up): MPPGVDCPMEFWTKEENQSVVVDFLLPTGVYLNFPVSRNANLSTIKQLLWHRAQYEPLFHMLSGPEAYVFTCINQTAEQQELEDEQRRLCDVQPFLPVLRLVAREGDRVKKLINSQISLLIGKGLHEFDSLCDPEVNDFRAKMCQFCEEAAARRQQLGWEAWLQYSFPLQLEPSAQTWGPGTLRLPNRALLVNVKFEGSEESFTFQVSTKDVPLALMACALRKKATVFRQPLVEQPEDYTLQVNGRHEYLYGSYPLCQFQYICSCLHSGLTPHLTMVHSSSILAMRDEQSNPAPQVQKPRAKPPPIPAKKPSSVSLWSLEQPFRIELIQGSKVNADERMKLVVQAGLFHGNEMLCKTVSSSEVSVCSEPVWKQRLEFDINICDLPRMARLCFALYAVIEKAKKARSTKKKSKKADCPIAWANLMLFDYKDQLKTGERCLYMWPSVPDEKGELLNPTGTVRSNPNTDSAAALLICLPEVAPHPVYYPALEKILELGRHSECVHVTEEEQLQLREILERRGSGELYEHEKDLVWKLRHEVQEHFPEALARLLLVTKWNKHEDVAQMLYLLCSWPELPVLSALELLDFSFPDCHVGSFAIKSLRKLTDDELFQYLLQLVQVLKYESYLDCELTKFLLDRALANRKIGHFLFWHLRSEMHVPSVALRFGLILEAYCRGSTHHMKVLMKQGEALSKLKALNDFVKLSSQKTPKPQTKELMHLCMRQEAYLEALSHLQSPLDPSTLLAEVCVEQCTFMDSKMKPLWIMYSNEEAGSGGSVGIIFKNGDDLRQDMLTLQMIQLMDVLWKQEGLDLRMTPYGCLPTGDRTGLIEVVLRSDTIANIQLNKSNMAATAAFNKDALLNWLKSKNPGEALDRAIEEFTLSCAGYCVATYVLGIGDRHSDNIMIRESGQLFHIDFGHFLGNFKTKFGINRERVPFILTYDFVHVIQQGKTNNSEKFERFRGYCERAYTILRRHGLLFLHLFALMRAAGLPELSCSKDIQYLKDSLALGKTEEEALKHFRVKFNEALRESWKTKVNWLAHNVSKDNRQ
PIK3Cδ, sequence (P27986 whole entry partner, looked up): as the sequence (P27986 whole entry partner, looked up) above
T1 sequence (Q06278 whole entry): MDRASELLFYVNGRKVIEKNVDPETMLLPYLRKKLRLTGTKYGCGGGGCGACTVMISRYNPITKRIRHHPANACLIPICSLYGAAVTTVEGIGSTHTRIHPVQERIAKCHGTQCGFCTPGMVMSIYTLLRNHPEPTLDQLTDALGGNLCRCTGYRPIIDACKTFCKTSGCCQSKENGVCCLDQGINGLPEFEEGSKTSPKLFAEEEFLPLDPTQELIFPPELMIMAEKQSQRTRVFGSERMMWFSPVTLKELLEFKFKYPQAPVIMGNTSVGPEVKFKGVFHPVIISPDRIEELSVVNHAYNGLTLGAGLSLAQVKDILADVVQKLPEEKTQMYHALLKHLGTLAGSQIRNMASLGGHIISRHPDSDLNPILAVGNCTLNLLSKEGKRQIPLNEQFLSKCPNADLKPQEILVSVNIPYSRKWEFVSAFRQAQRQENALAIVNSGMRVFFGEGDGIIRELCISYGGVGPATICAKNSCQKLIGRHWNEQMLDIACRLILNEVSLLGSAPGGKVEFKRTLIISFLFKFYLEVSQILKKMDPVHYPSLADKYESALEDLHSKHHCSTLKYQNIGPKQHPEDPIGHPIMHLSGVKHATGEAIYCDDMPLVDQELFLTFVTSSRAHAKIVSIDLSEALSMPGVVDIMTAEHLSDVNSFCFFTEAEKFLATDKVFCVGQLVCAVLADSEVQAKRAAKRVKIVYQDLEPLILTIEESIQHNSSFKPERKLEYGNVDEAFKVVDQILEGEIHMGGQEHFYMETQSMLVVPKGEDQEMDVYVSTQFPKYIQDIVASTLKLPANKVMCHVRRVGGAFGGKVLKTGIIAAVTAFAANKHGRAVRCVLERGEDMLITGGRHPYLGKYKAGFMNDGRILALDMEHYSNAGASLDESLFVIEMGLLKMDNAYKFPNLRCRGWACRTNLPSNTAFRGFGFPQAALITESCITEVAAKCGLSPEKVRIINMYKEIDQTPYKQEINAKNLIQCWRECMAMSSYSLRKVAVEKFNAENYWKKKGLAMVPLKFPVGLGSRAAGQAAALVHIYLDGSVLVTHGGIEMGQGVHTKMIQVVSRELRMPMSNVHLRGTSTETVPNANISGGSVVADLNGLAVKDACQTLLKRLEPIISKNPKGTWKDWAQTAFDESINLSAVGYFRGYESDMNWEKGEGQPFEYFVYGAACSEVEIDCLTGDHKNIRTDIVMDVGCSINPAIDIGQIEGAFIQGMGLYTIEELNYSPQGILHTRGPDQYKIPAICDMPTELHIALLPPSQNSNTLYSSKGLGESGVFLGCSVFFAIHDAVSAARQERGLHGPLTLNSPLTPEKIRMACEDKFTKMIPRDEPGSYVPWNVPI
Method for PI3Kα (p110α/p85a): Assay c): PI3K Biochemical Potency
(§1) 2.5 μl of kinase solution was added to each well of the 384-well assay plate, which contains 2.5 μl of compounds with serially diluted concentration. 2× substrate solution was prepared with PIP2 substrate and ATP in 1× kinase reaction buffer at 2-fold of the final concentration of each reagent in the assay. 5 μl of substrate solution was added to each well of the assay plate to start reaction. The assay plate was incubated at room temperature for 1 hour. 5 μl reaction mix was transferred to a new 384 well plate. 5 μl of ADP-Glo reagent (Promega, Cat. No. v9102/3) was added to each well of the new assay plate to stop the reaction. The plate was shaken slowly and equilibrated for 40 minutes. 10 μl kinase detection reagents were added to each well, which was equilibrated for 60 minutes before read on a plate reader (Envision) for luminescence.
Method for PIK3Cβ (p110β): Assay c): PI3K Biochemical Potency
as §1
Method for PIK3Cγ (pp110γ): Assay c): PI3K Biochemical Potency
as §1
Method for PIK3Cδ: Assay c): PI3K Biochemical Potency
as §1
Method for mTOR: Assay d): mTOR Biochemical Potency
Solution of mTOR enzymes (Millipore, Cat. No. 14-770) was prepared in 1× kinase buffer at 4-fold of the final concentration (final concentration: 6 nM) in the assay. 2.5 μl of kinase solution was added to each well of the 384-well assay plate, which contains 2.5 μl of compounds with serially diluted concentration. 2× substrate solution was prepared with ULight-4E-BP1 (Thr37/46) Peptide (PE, Cat. No. TRF0128-M) and ATP in 1× kinase reaction buffer at 2-fold of the final concentration of each reagent in the assay. 5 μl of substrate solution was added to each well of the assay plate to start reaction. The assay plate was incubated at room temperature for 30 minutes. Detection solution of kinase quench buffer (EDTA) and Eu-anti-phospho-4E-BP1 antibody (Thr37/46) (PE, Cat. No. TRF0216-M) were prepared at 2-fold the desired final concentrations of each reagent in Lance detection buffer. 10 μl of detection solution buffer was added to each well of the assay plate.

As to `CC(C)n1c(=O)n(C)c2cnc3cc(F)c(-c4ccc(OCCCN5CCCCC5)nc4)cc3c21` [AZD1390], the AO substrate classification result at aldehyde oxidase (AO) [1] (human liver cytosol) is listed as “strong AO substrate”.
On to `CC(C)n1c(=O)n(C)c2nnc3ccc(-c4ccc(COCCN5CCC(C)(C)CC5)nc4)cc3c21` [Example 31, 8-(6-((2-(4,4-dimethylpiperidin-1-yl)ethoxy)methyl)pyridin-3-yl)-1-isopropyl-3-methyl-1H-imidazo[4,5-c]cinnolin-2(3H)-one], for which the IC50 at ATM was 0.011 µM; on ATR, more than 10 µM; against DNA-PK it was more than 10 µM; in series [2], 0.016 µM; in series [3], 0.029 µM; at mTOR (read-out: mTor IC50), more than 10 µM. Moreover, the IC50 at PI3Kα (p110α/p85a) (read-out: PI3Kα IC50), at PIK3Cδ (read-out: PI3Kδ IC50), at PIK3Cβ (p110β) (read-out: PI3Kβ IC50) and at PIK3Cγ (pp110γ) (read-out: PI3Kγ IC50) was more than 10 µM each time.
As for `COC1CCN(CCO[C@H](C)c2ccc(-c3ccc4nnc5c(c4c3)n(C(C)C)c(=O)n5C)cn2)CC1` [Example 56, (R)-1-isopropyl-8-(6-(1-(2-(4-methoxypiperidin-1-yl)ethoxy)ethyl)pyridin-3-yl)-3-methyl-1H-imidazo[4,5-c]cinnolin-2(3H)-one], the IC50 at ATM is 0.0032 µM; at ATR, more than 10 µM; on DNA-PK, more than 10 µM; on mTOR (read-out: mTor IC50), more than 10 µM; at PI3Kα (p110α/p85a) (read-out: PI3Kα IC50), more than 10 µM; on PIK3Cδ (read-out: PI3Kδ IC50), more than 10 µM. For the same molecule, the IC50 at PIK3Cβ (p110β) (read-out: PI3Kβ IC50) and at PIK3Cγ (pp110γ) (read-out: PI3Kγ IC50) was more than 10 µM each time.
As to `CC(C)n1c(=O)n(C)c2nnc3ccc(-c4ccc([C@@H](C)OCCN5CC[C@@H](OC6CC6)C5)nc4)cc3c21` [Example 76, 8-(6-((R)-1-(2-((R)-3-cyclopropoxypyrrolidin-1-yl)ethoxy)ethyl)pyridin-3-yl)-1-isopropyl-3-methyl-1H-imidazo[4,5-c]cinnolin-2(3H)-one], the IC50 at ATR, against DNA-PK, on mTOR, against PI3Kα (p110α/p85a), on PIK3Cδ and on PIK3Cβ (p110β) was more than 10 µM throughout. Besides, the IC50 against PIK3Cγ (pp110γ) was more than 10 µM.
For the molecule `CC(C)n1c(=O)n(C)c2nnc3ccc(-c4ccc([C@@H](C)OCCN5CC[C@@H](C)C5)nc4)cc3c21` [Example 77, 1-isopropyl-3-methyl-8-(6-((R)-1-(2-((R)-3-methylpyrrolidin-1-yl)ethoxy)ethyl)pyridin-3-yl)-1H-imidazo[4,5-c]cinnolin-2(3H)-one], the IC50 on ATM is 0.0048 µM; against ATR it was more than 10 µM; on DNA-PK, more than 10 µM; at mTOR (read-out: mTor IC50), more than 10 µM; at PI3Kα (p110α/p85a) (read-out: PI3Kα IC50), more than 10 µM; at PIK3Cδ (read-out: PI3Kδ IC50) it was more than 10 µM. For the same molecule, the IC50 at PIK3Cβ (p110β) (read-out: PI3Kβ IC50) and on PIK3Cγ (pp110γ) (read-out: PI3Kγ IC50) was more than 10 µM each time.
As for `CO[C@H]1C[C@H](n2c(=O)n(C)c3nnc4ccc(-c5ccc([C@@H](C)OCCN6CCCC6)nc5)cc4c32)C1` [Example 162, 1-(trans-3-methoxycyclobutyl)-3-methyl-8-(6-((R)-1-(2-(pyrrolidin-1-yl)ethoxy)ethyl)pyridin-3-yl)-1,3-dihydro-2H-imidazo[4,5-c]cinnolin-2-one], the IC50 at ATM is 0.007 µM; on ATR, more than 10 µM; on DNA-PK it was more than 10 µM; in series [3] it was 0.0055 µM; on mTOR (read-out: mTor IC50), more than 10 µM; on PI3Kα (p110α/p85a) (read-out: PI3Kα IC50), more than 10 µM. The IC50 at PIK3Cδ (read-out: PI3Kδ IC50), at PIK3Cβ (p110β) (read-out: PI3Kβ IC50) and at PIK3Cγ (pp110γ) (read-out: PI3Kγ IC50) was more than 10 µM throughout.
As to `CC(C)n1c(=O)n(C)c2nnc3ccc(-c4ccc([C@H](OCCN5CCCC5)C(F)(F)F)nc4)cc3c21` [Example 184, (S)-1-isopropyl-3-methyl-8-(6-(2,2,2-trifluoro-1-(2-(pyrrolidin-1-yl)ethoxy)ethyl)pyridin-3-yl)-1,3-dihydro-2H-imidazo[4,5-c]cinnolin-2-one], the IC50 on ATM was 0.0028 µM; against ATR, more than 10 µM; at DNA-PK it was more than 10 µM; on mTOR (read-out: mTor IC50), more than 10 µM; at PI3Kα (p110α/p85a) (read-out: PI3Kα IC50), more than 10 µM; at PIK3Cδ (read-out: PI3Kδ IC50) it was more than 10 µM. Besides, the IC50 at PIK3Cβ (p110β) (read-out: PI3Kβ IC50) and on PIK3Cγ (pp110γ) (read-out: PI3Kγ IC50) was more than 10 µM each time.
With `CC(C)n1c(=O)n(C)c2nnc3ccc(-c4ccc([C@@H](OCCN5CCCC5)C(F)(F)F)nc4)cc3c21` [Example 185, (R)-1-isopropyl-3-methyl-8-(6-(2,2,2-trifluoro-1-(2-(pyrrolidin-1-yl)ethoxy)ethyl)pyridin-3-yl)-1,3-dihydro-2H-imidazo[4,5-c]cinnolin-2-one], the IC50 was 0.292 µM at ATM; more than 10 µM against ATR; more than 10 µM on DNA-PK; more than 10 µM at mTOR (read-out: mTor IC50); more than 10 µM on PI3Kα (p110α/p85a) (read-out: PI3Kα IC50); more than 10 µM at PIK3Cδ (read-out: PI3Kδ IC50). In addition, the IC50 on PIK3Cβ (p110β) (read-out: PI3Kβ IC50) and on PIK3Cγ (pp110γ) (read-out: PI3Kγ IC50) was more than 10 µM each time.
Regarding `OCCn1cc(-c2cnc3nnn(Cc4ccc5ncccc5c4)c3n2)cn1` [PF-04217903, 2-[4-[3-(quinolin-6-ylmethyl)triazolo[4,5-b]pyrazin-5-yl]pyrazol-1-yl]ethanol], the “AO substrate classification (reported)” value on aldehyde oxidase (AO) [4] is “weak AO substrate”.
Regarding `CCN(C(C)=O)c1cccc(-c2ccnc3c(C#N)cnn23)c1` [Reference compound 4, Zaleplon], the microsomal CLint at aldehyde oxidase (AO) [1] (human, cytosol) turned out to be 0.893 µL/min/mg. In addition, in series [5], the clearance in humans is on record as 16 mL/min/kg and the “clearance in humans corresponding to liver blood flow” value is reported as approximately 80 % liver blood flow.
`OCCn1cc(-c2cnc3nnn(Cc4ccc5ncccc5c4)c3n2)cn1` [Reference compound 5, PF-04217903]: in series [5], the clearance in humans was 6 mL/min/kg and the “clearance in humans corresponding to liver blood flow” value is recorded as approximately 30 % liver blood flow.
Consider `CCN(C(C)=O)c1cccc(-c2ccnc3c(C#N)cnn23)c1` [Zaleplon, N-[3-(3-cyanopyrazolo[1,5-a]pyrimidin-7-yl)phenyl]-N-ethylacetamide], for which the “AO substrate classification (reported)” value on aldehyde oxidase (AO) [4] is given as “strong AO substrate”.

These data come from patent US20240207263A1, “SELECTIVE MODULATORS OF ATAXIA TELA[…] (ATM) KINASE AND USES THEREOF” (priority 2021, published 2024).
